{
  "source": "the supplement of paper PMC8671470",
  "data": [
    {"test_system": "myeloid leukemia patient primary cells Pat.2", "experiment": "cell viability (% survival relative to DMSO control); higher = less cytotoxic", "settings": "1 nM; 72 h", "outline": "(§1)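 Thawed mononuclear cells from AML or CML patients were purified on Ficoll and cultured for 72 h in RPMI 1640 with 10% FBS, at 10,000 cells/well, on 384-well plates carrying 70 pre-printed compounds at 1–10,000 nM in five tenfold steps, in duplicate. Viability came from CellTiter-Glo, normalised against DMSO and against 10 μM proteasome inhibitor. Any area under the curve given was derived from log-logistic curve fits in the drc and PharmacoGx R packages, and these fits had four parameters.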", "units": {"cell viability": "%"}, "values": [
      {"smiles": "Nc1ccn([C@@H]2O[C@H](CO)[C@@H](O)C2(F)F)c(=O)n1", "note": "[Gemcitabine]", "cell viability": 90.2},
      {"smiles": "Clc1cc(Cl)c(OCC#CI)cc1Cl", "note": "[Haloprogin]", "cell viability": 93.8},
      {"smiles": "O=c1[nH]c(=O)n([C@H]2C[C@H](O)[C@@H](CO)O2)cc1I", "note": "[Idoxuridine]", "cell viability": "> 100"}
    ]},
    {"test_system": "myeloid leukemia patient primary cells Pat.2", "experiment": "cell viability (% survival relative to DMSO control); higher = less cytotoxic", "settings": "10 nM; 72 h", "outline": "as §1", "units": {"cell viability": "%"}, "values": [
      {"smiles": "O=C(Cc1cccc(OC(F)(F)F)c1)Nc1ccc(CCCCc2nnc(NC(=O)Cc3ccccn3)s2)nn1", "note": "[CB-839]", "cell viability": 91.3},
      {"smiles": "O=C(/C=C/c1cccnc1)NCCCCC1CCN(C(=O)c2ccccc2)CC1", "note": "[Daporinad]", "cell viability": 30.5},
      {"smiles": "Nc1ccn([C@@H]2O[C@H](CO)[C@@H](O)C2(F)F)c(=O)n1", "note": "[Gemcitabine]", "cell viability": 95.4},
      {"smiles": "Clc1cc(Cl)c(OCC#CI)cc1Cl", "note": "[Haloprogin]", "cell viability": 96.9},
      {"smiles": "O=c1[nH]c(=O)n([C@H]2C[C@H](O)[C@@H](CO)O2)cc1I", "note": "[Idoxuridine]", "cell viability": 90}
    ]},
    {"test_system": "myeloid leukemia patient primary cells Pat.2", "experiment": "cell viability (% survival relative to DMSO control); higher = less cytotoxic", "settings": "100 nM; 72 h", "outline": "as §1", "units": {"cell viability": "%"}, "values": [
      {"smiles": "O=C(Cc1cccc(OC(F)(F)F)c1)Nc1ccc(CCCCc2nnc(NC(=O)Cc3ccccn3)s2)nn1", "note": "[CB-839]", "cell viability": 78.1},
      {"smiles": "O=C(/C=C/c1cccnc1)NCCCCC1CCN(C(=O)c2ccccc2)CC1", "note": "[Daporinad]", "cell viability": 11.7},
      {"smiles": "Nc1ccn([C@@H]2O[C@H](CO)[C@@H](O)C2(F)F)c(=O)n1", "note": "[Gemcitabine]", "cell viability": 98.4},
      {"smiles": "Clc1cc(Cl)c(OCC#CI)cc1Cl", "note": "[Haloprogin]", "cell viability": 92.1},
      {"smiles": "O=c1[nH]c(=O)n([C@H]2C[C@H](O)[C@@H](CO)O2)cc1I", "note": "[Idoxuridine]", "cell viability": 94.9}
    ]},
    {"test_system": "myeloid leukemia patient primary cells Pat.2", "experiment": "cell viability (% survival relative to DMSO control); higher = less cytotoxic", "settings": "1000 nM; 72 h", "outline": "as §1", "units": {"cell viability": "%"}, "values": [
      {"smiles": "O=C(Cc1cccc(OC(F)(F)F)c1)Nc1ccc(CCCCc2nnc(NC(=O)Cc3ccccn3)s2)nn1", "note": "[CB-839]", "cell viability": 87},
      {"smiles": "O=C(/C=C/c1cccnc1)NCCCCC1CCN(C(=O)c2ccccc2)CC1", "note": "[Daporinad]", "cell viability": 9.71},
      {"smiles": "Nc1ccn([C@@H]2O[C@H](CO)[C@@H](O)C2(F)F)c(=O)n1", "note": "[Gemcitabine]", "cell viability": 82.9},
      {"smiles": "Clc1cc(Cl)c(OCC#CI)cc1Cl", "note": "[Haloprogin]", "cell viability": 65},
      {"smiles": "O=c1[nH]c(=O)n([C@H]2C[C@H](O)[C@@H](CO)O2)cc1I", "note": "[Idoxuridine]", "cell viability": 84.2}
    ]},
    {"test_system": "myeloid leukemia patient primary cells Pat.2", "experiment": "cell viability (% survival relative to DMSO control); higher = less cytotoxic", "settings": "10000 nM; 72 h", "outline": "as §1", "units": {"cell viability": "%"}, "values": [
      {"smiles": "O=C(Cc1cccc(OC(F)(F)F)c1)Nc1ccc(CCCCc2nnc(NC(=O)Cc3ccccn3)s2)nn1", "note": "[CB-839]", "cell viability": 88.3},
      {"smiles": "O=C(/C=C/c1cccnc1)NCCCCC1CCN(C(=O)c2ccccc2)CC1", "note": "[Daporinad]", "cell viability": 6.63},
      {"smiles": "Nc1ccn([C@@H]2O[C@H](CO)[C@@H](O)C2(F)F)c(=O)n1", "note": "[Gemcitabine]", "cell viability": 48.5},
      {"smiles": "Clc1cc(Cl)c(OCC#CI)cc1Cl", "note": "[Haloprogin]", "cell viability": "< 0"},
      {"smiles": "O=c1[nH]c(=O)n([C@H]2C[C@H](O)[C@@H](CO)O2)cc1I", "note": "[Idoxuridine]", "cell viability": 98.2}
    ]},
    {"test_system": "myeloid leukemia patient primary cells Pat.3", "experiment": "cell viability (% survival relative to DMSO control); higher = less cytotoxic", "settings": "1 nM; 72 h", "outline": "as §1", "units": {"cell viability": "%"}, "values": [
      {"smiles": "O=C(Cc1cccc(OC(F)(F)F)c1)Nc1ccc(CCCCc2nnc(NC(=O)Cc3ccccn3)s2)nn1", "note": "[CB-839]", "cell viability": 67.7},
      {"smiles": "O=C(/C=C/c1cccnc1)NCCCCC1CCN(C(=O)c2ccccc2)CC1", "note": "[Daporinad]", "cell viability": 3.7},
      {"smiles": "Nc1ccn([C@@H]2O[C@H](CO)[C@@H](O)C2(F)F)c(=O)n1", "note": "[Gemcitabine]", "cell viability": 61.9},
      {"smiles": "Clc1cc(Cl)c(OCC#CI)cc1Cl", "note": "[Haloprogin]", "cell viability": "> 100"},
      {"smiles": "O=c1[nH]c(=O)n([C@H]2C[C@H](O)[C@@H](CO)O2)cc1I", "note": "[Idoxuridine]", "cell viability": 19.5}
    ]},
    {"test_system": "myeloid leukemia patient primary cells Pat.3", "experiment": "cell viability (% survival relative to DMSO control); higher = less cytotoxic", "settings": "10 nM; 72 h", "outline": "as §1", "units": {"cell viability": "%"}, "values": [
      {"smiles": "O=C(Cc1cccc(OC(F)(F)F)c1)Nc1ccc(CCCCc2nnc(NC(=O)Cc3ccccn3)s2)nn1", "note": "[CB-839]", "cell viability": 39.5},
      {"smiles": "O=C(/C=C/c1cccnc1)NCCCCC1CCN(C(=O)c2ccccc2)CC1", "note": "[Daporinad]", "cell viability": 2.72},
      {"smiles": "Nc1ccn([C@@H]2O[C@H](CO)[C@@H](O)C2(F)F)c(=O)n1", "note": "[Gemcitabine]", "cell viability": 22.1},
      {"smiles": "Clc1cc(Cl)c(OCC#CI)cc1Cl", "note": "[Haloprogin]", "cell viability": 99.9},
      {"smiles": "O=c1[nH]c(=O)n([C@H]2C[C@H](O)[C@@H](CO)O2)cc1I", "note": "[Idoxuridine]", "cell viability": 71.8}
    ]},
    {"test_system": "myeloid leukemia patient primary cells Pat.3", "experiment": "cell viability (% survival relative to DMSO control); higher = less cytotoxic", "settings": "100 nM; 72 h", "outline": "as §1", "units": {"cell viability": "%"}, "values": [
      {"smiles": "O=C(Cc1cccc(OC(F)(F)F)c1)Nc1ccc(CCCCc2nnc(NC(=O)Cc3ccccn3)s2)nn1", "note": "[CB-839]", "cell viability": 11.1},
      {"smiles": "O=C(/C=C/c1cccnc1)NCCCCC1CCN(C(=O)c2ccccc2)CC1", "note": "[Daporinad]", "cell viability": 2.93},
      {"smiles": "Nc1ccn([C@@H]2O[C@H](CO)[C@@H](O)C2(F)F)c(=O)n1", "note": "[Gemcitabine]", "cell viability": 25},
      {"smiles": "Clc1cc(Cl)c(OCC#CI)cc1Cl", "note": "[Haloprogin]", "cell viability": 92.4},
      {"smiles": "O=c1[nH]c(=O)n([C@H]2C[C@H](O)[C@@H](CO)O2)cc1I", "note": "[Idoxuridine]", "cell viability": 81.6}
    ]},
    {"test_system": "myeloid leukemia patient primary cells Pat.3", "experiment": "cell viability (% survival relative to DMSO control); higher = less cytotoxic", "settings": "1000 nM; 72 h", "outline": "as §1", "units": {"cell viability": "%"}, "values": [
      {"smiles": "O=C(Cc1cccc(OC(F)(F)F)c1)Nc1ccc(CCCCc2nnc(NC(=O)Cc3ccccn3)s2)nn1", "note": "[CB-839]", "cell viability": 9.36},
      {"smiles": "O=C(/C=C/c1cccnc1)NCCCCC1CCN(C(=O)c2ccccc2)CC1", "note": "[Daporinad]", "cell viability": 3.29},
      {"smiles": "Nc1ccn([C@@H]2O[C@H](CO)[C@@H](O)C2(F)F)c(=O)n1", "note": "[Gemcitabine]", "cell viability": 7.9},
      {"smiles": "Clc1cc(Cl)c(OCC#CI)cc1Cl", "note": "[Haloprogin]", "cell viability": 1.81},
      {"smiles": "O=c1[nH]c(=O)n([C@H]2C[C@H](O)[C@@H](CO)O2)cc1I", "note": "[Idoxuridine]", "cell viability": 83.6}
    ]},
    {"test_system": "myeloid leukemia patient primary cells Pat.3", "experiment": "cell viability (% survival relative to DMSO control); higher = less cytotoxic", "settings": "10000 nM; 72 h", "outline": "as §1", "units": {"cell viability": "%"}, "values": [
      {"smiles": "O=C(Cc1cccc(OC(F)(F)F)c1)Nc1ccc(CCCCc2nnc(NC(=O)Cc3ccccn3)s2)nn1", "note": "[CB-839]", "cell viability": 14.5},
      {"smiles": "O=C(/C=C/c1cccnc1)NCCCCC1CCN(C(=O)c2ccccc2)CC1", "note": "[Daporinad]", "cell viability": 2.8},
      {"smiles": "Nc1ccn([C@@H]2O[C@H](CO)[C@@H](O)C2(F)F)c(=O)n1", "note": "[Gemcitabine]", "cell viability": 4.31},
      {"smiles": "Clc1cc(Cl)c(OCC#CI)cc1Cl", "note": "[Haloprogin]", "cell viability": "< 0"},
      {"smiles": "O=c1[nH]c(=O)n([C@H]2C[C@H](O)[C@@H](CO)O2)cc1I", "note": "[Idoxuridine]", "cell viability": 95.1}
    ]},
    {"test_system": "myeloid leukemia patient primary cells Pat.4", "experiment": "cell viability (% survival relative to DMSO control); higher = less cytotoxic", "settings": "1 nM; 72 h", "outline": "as §1", "units": {"cell viability": "%"}, "values": [
      {"smiles": "O=C(Cc1cccc(OC(F)(F)F)c1)Nc1ccc(CCCCc2nnc(NC(=O)Cc3ccccn3)s2)nn1", "note": "[CB-839]", "cell viability": 92},
      {"smiles": "O=C(/C=C/c1cccnc1)NCCCCC1CCN(C(=O)c2ccccc2)CC1", "note": "[Daporinad]", "cell viability": 38.2},
      {"smiles": "Nc1ccn([C@@H]2O[C@H](CO)[C@@H](O)C2(F)F)c(=O)n1", "note": "[Gemcitabine]", "cell viability": 75.4},
      {"smiles": "Clc1cc(Cl)c(OCC#CI)cc1Cl", "note": "[Haloprogin]", "cell viability": 88.7},
      {"smiles": "O=c1[nH]c(=O)n([C@H]2C[C@H](O)[C@@H](CO)O2)cc1I", "note": "[Idoxuridine]", "cell viability": 99.7}
    ]},
    {"test_system": "myeloid leukemia patient primary cells Pat.4", "experiment": "cell viability (% survival relative to DMSO control); higher = less cytotoxic", "settings": "10 nM; 72 h", "outline": "as §1", "units": {"cell viability": "%"}, "values": [
      {"smiles": "O=C(Cc1cccc(OC(F)(F)F)c1)Nc1ccc(CCCCc2nnc(NC(=O)Cc3ccccn3)s2)nn1", "note": "[CB-839]", "cell viability": 91.5},
      {"smiles": "O=C(/C=C/c1cccnc1)NCCCCC1CCN(C(=O)c2ccccc2)CC1", "note": "[Daporinad]", "cell viability": 3.86},
      {"smiles": "Nc1ccn([C@@H]2O[C@H](CO)[C@@H](O)C2(F)F)c(=O)n1", "note": "[Gemcitabine]", "cell viability": 93.4},
      {"smiles": "Clc1cc(Cl)c(OCC#CI)cc1Cl", "note": "[Haloprogin]", "cell viability": 87.3},
      {"smiles": "O=c1[nH]c(=O)n([C@H]2C[C@H](O)[C@@H](CO)O2)cc1I", "note": "[Idoxuridine]", "cell viability": 82.4}
    ]},
    {"test_system": "myeloid leukemia patient primary cells Pat.4", "experiment": "cell viability (% survival relative to DMSO control); higher = less cytotoxic", "settings": "100 nM; 72 h", "outline": "as §1", "units": {"cell viability": "%"}, "values": [
      {"smiles": "O=C(Cc1cccc(OC(F)(F)F)c1)Nc1ccc(CCCCc2nnc(NC(=O)Cc3ccccn3)s2)nn1", "note": "[CB-839]", "cell viability": 57.4},
      {"smiles": "O=C(/C=C/c1cccnc1)NCCCCC1CCN(C(=O)c2ccccc2)CC1", "note": "[Daporinad]", "cell viability": 2.67}
    ]}
  ]
}
